By IC50 is commonly meant the concentration that inhibits the measured activity by half.

A short description of series [1]: DRUGMATRIX: ATPase, Na+/K+ enzyme inhibition (substrate: ATP). Format: tissue-based, Sus scrofa, Heart. The following applies: Not Active = under 50% inhibition at 10 µM.
Series [2] addresses Prostaglandin G/H synthase 1 (Homo sapiens, UniProt P23219). The series is described as follows: biochemical. Format: tissue-based, Platelet.
Series [3] concerns the target T1, Nitric oxide synthase, inducible (Mus musculus, UniProt P29477).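 Further: inhibition of iNOS enzyme activity measured with L-arginine as substrate; in other assays of this panel Not Active means under 50% inhibition at 10 µM.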
T1 sequence (P29477 whole entry): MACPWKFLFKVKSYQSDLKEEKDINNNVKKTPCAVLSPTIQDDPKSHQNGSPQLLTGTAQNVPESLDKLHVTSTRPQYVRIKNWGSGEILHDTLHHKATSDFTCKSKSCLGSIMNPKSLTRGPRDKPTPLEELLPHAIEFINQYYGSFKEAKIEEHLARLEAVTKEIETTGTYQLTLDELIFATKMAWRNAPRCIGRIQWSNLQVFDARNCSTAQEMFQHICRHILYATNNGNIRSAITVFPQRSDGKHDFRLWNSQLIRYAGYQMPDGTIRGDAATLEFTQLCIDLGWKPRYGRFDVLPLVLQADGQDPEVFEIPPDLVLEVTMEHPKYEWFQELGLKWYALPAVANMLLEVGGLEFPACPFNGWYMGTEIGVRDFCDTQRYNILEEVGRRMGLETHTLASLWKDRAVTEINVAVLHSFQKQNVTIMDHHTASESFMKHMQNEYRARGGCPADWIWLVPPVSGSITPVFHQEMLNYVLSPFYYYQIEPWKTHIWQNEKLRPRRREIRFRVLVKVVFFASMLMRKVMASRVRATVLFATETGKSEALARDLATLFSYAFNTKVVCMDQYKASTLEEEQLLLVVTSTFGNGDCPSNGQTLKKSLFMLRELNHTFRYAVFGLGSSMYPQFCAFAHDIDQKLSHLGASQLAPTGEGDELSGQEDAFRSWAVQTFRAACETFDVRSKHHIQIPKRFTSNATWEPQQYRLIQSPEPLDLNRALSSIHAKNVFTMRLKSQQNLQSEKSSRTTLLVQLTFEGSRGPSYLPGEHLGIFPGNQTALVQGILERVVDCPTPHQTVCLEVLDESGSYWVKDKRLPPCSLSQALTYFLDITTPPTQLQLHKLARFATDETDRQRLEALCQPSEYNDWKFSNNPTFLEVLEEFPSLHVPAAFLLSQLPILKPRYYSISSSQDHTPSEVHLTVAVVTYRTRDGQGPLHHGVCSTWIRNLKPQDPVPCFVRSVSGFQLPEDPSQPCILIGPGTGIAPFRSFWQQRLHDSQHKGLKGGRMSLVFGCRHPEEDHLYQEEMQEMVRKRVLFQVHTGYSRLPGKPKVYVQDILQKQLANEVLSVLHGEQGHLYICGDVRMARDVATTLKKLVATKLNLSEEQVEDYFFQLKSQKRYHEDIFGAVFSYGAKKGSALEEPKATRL
More on the design: species or system Escherichia coli.

Series [4] in a line: DRUGMATRIX: Phosphodiesterase PDE4 enzyme inhibition (substrate: [3H]cAMP + cAMP). To be noted: u-937; Not Active = under 50% inhibition at 10 µM.
For another series, the target named is T2, Neutrophil elastase (Homo sapiens, UniProt P08246).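 Further: inhibition of neutrophil elastase enzyme activity, measured with a p-nitroanilide-linked peptide substrate; in other assays of this panel Not Active means under 50% inhibition at 10 µM.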
T2 sequence (P08246 whole entry): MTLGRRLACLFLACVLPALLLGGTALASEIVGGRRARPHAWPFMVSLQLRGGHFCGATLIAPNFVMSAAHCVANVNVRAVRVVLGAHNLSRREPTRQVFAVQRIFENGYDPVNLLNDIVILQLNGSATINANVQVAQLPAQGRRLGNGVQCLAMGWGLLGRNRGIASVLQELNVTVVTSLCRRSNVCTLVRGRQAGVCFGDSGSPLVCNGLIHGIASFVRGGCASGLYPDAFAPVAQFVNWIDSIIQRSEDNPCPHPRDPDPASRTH
Format: tissue-based.

For another series, the target named is T3, Adenosine receptor A3 (Homo sapiens, UniProt P0DMS8).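 Further: radioligand binding assay with AB-MECA serving as the labeled ligand; in other assays of this panel Not Active means under 50% inhibition at 10 µM.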
T3 sequence (P0DMS8 whole entry): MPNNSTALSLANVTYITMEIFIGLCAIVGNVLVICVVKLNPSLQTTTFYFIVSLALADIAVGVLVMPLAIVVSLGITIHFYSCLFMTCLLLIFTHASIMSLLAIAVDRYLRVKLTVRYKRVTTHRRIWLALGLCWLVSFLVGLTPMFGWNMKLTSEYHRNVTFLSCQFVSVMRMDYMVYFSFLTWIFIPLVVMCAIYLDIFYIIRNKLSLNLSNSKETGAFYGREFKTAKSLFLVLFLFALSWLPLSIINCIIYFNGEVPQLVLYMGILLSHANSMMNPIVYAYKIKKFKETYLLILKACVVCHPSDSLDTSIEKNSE
In kind it is cell membranes, CHO-K1, Membrane. The following applies: cho-k1.

The target in a further series is Cytochrome P450 2D6 (Homo sapiens, UniProt P10635). To be noted: bti-tn-5b1-4. Further: in other assays of this panel Not Active means under 50% inhibition at 10 µM.
Cytochrome P450 2D6, sequence (P10635 whole entry): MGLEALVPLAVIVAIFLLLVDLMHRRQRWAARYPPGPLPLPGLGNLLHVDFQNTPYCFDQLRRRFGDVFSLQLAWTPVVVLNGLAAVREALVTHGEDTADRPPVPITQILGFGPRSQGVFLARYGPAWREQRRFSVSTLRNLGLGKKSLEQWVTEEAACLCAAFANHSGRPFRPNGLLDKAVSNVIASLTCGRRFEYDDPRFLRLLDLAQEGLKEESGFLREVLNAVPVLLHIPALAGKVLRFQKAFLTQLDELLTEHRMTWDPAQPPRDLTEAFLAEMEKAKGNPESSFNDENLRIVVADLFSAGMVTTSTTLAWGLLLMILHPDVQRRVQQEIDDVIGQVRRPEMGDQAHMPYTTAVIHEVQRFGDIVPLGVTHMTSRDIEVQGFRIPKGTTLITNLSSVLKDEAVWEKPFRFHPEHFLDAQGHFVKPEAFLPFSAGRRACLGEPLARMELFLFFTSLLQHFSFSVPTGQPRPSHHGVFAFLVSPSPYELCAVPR

Prostaglandin G/H synthase 1, sequence (P23219 whole entry): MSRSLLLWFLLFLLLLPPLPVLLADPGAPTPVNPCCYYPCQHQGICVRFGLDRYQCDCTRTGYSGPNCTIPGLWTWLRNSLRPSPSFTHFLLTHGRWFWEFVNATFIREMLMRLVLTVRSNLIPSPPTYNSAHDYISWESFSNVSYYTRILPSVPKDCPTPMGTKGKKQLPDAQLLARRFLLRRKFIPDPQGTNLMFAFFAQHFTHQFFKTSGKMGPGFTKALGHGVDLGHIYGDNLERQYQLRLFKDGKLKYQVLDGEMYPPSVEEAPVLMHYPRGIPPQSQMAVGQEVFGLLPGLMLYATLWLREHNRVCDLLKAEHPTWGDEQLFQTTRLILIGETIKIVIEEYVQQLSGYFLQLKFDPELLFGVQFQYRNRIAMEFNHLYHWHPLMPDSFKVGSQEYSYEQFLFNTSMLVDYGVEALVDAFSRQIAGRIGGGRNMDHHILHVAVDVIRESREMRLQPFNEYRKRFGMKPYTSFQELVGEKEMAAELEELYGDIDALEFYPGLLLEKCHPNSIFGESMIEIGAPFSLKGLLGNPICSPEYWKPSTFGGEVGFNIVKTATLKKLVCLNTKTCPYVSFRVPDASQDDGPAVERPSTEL

As for `Cc1cc(C2CCCCC2)n(O)c(=O)c1` [CICLOPIROX], the half-inhibitory concentration (IC50) entry (in series [1]; in series [2] (platelet); in series [3]; in series [4]; against Neutrophil elastase; against Adenosine receptor A3) was “Not Active” in each case. The concentration for half-maximal inhibition (IC50) result against Cytochrome P450 2D6 is “Not Active”. The Ki result (in series [1]; in series [4]; on Cytochrome P450 2D6) was “Not Active” each time.
`CCCCc1nc(Cl)c(CO)n1Cc1ccc(-c2ccccc2-c2nnn[nH]2)cc1` [LOSARTAN]: the 50% inhibitory concentration (IC50) entry (in series [1]; in series [2] (platelet); in series [3]; in series [4]; on Neutrophil elastase; on Adenosine receptor A3) was “Not Active” throughout. The concentration for half-maximal inhibition (IC50) result on Cytochrome P450 2D6 was “Not Active”. Besides, the Ki entry (in series [1]; in series [4]; at Cytochrome P450 2D6) was “Not Active” throughout.
Consider `COc1cc2nc(N3CCN(C(=O)C4COc5ccccc5O4)CC3)nc(N)c2cc1OC` (stereo not given) [DOXAZOSIN], for which the 50% inhibitory concentration (IC50) entry (in series [1]; in series [2] (platelet); in series [3]; in series [4]; against Neutrophil elastase; at Adenosine receptor A3) was “Not Active” throughout. At Cytochrome P450 2D6, the IC50 entry is listed as “Not Active”. For the same compound, the Ki result (in series [1]; in series [4]; on Cytochrome P450 2D6) was “Not Active” each time.
For the compound `Cc1onc(O)c1CC(N)C(=O)O` (racemic) [(R,S)-AMPA], the half-maximal inhibitory concentration (IC50) entry (in series [1]; in series [2] (platelet); in series [3]; in series [4]; on Neutrophil elastase; against Adenosine receptor A3) was “Not Active” throughout. In addition, at Cytochrome P450 2D6, the IC50 result is “Not Active”. Also, the Ki entry (in series [1]; in series [4]; on Cytochrome P450 2D6) was “Not Active” in each case.
As for `CC1CC(OC(=O)C(O)c2ccccc2)CC(C)(C)C1` (stereo not given) [CYCLANDELATE], the concentration for half-maximal inhibition (IC50) result (in series [1]; in series [2] (platelet); in series [3]; in series [4]; against Neutrophil elastase; against Adenosine receptor A3) was “Not Active” throughout. Moreover, the IC50 entry against Cytochrome P450 2D6 is given as “Not Active”. Moreover, the Ki entry (in series [1]; in series [4]; at Cytochrome P450 2D6) was “Not Active” in each case.
Regarding `COCCc1ccc(OCC(O)CNC(C)C)cc1` (stereo not given) [METOPROLOL], the concentration for half-maximal inhibition (IC50) result (in series [1]; in series [2] (platelet); in series [3]; in series [4]; on Neutrophil elastase; on Adenosine receptor A3) was “Not Active” each time. The IC50 entry against Cytochrome P450 2D6 is listed as “Not Active”. Further, the Ki result (in series [1]; in series [4]; at Cytochrome P450 2D6) was “Not Active” throughout.
Regarding `c1ccc(Nc2ccc(Nc3ccccc3)cc2)cc1`, the IC50 entry in series [1] was “Not Active”; in series [2] (read-out: IC50) it was 260 nM; in series [3] it was “Not Active”; in series [4] it was “Not Active”; on Neutrophil elastase it was “Not Active”; against Adenosine receptor A3, “Not Active”. Moreover, the IC50 result against Cytochrome P450 2D6 is “Not Active”. Besides, the Ki result (in series [1]; in series [4]; at Cytochrome P450 2D6) was “Not Active” throughout.
`Cc1onc(-c2ccccc2Cl)c1C(=O)N[C@@H]1C(=O)N2[C@@H]1SC(C)(C)[C@@H]2C(=O)O` [CLOXACILLIN]: the IC50 entry (in series [1]; in series [2] (platelet); in series [3]; in series [4]; on Neutrophil elastase; at Adenosine receptor A3) was “Not Active” in each case. Further, on Cytochrome P450 2D6, the half-maximal inhibitory concentration (IC50) result is recorded as “Not Active”. The Ki result (in series [1]; in series [4]; at Cytochrome P450 2D6) was “Not Active” in each case.
For `CC1=C2C(=CO[C@H](C)[C@H]2C)C(O)=C(C(=O)O)C1=O` [CITRININ], the IC50 entry (in series [1]; in series [2] (platelet); in series [3]; in series [4]; against Neutrophil elastase; against Adenosine receptor A3) was “Not Active” each time. Also, the concentration for half-maximal inhibition (IC50) result against Cytochrome P450 2D6 was “Not Active”. Besides, the Ki result (in series [1]; in series [4]; on Cytochrome P450 2D6) was “Not Active” each time.
Take `CC(C)C(=O)Nc1ccc([N+](=O)[O-])c(C(F)(F)F)c1` [FLUTAMIDE]: the IC50 entry (in series [1]; in series [2] (platelet); in series [3]; in series [4]; on Neutrophil elastase; against Adenosine receptor A3) was “Not Active” each time. On Cytochrome P450 2D6, the IC50 entry was “Not Active”. In addition, the Ki entry (in series [1]; in series [4]; at Cytochrome P450 2D6) was “Not Active” throughout.
Consider `CC[C@@]1(O)C[C@H](O[C@H]2C[C@H](N(C)C)[C@H](O[C@H]3C[C@H](O)[C@H](O[C@H]4CCC(=O)[C@H](C)O4)[C@H](C)O3)[C@H](C)O2)c2c(cc3c(c2O)C(=O)c2c(O)cccc2C3=O)[C@H]1C(=O)OC` [ACLARUBICIN], for which the IC50 result (in series [1]; in series [2] (platelet); in series [3]; in series [4]; against Neutrophil elastase; against Adenosine receptor A3) was “Not Active” each time. In addition, on Cytochrome P450 2D6, the IC50 entry is recorded as “Not Active”. Also, the Ki entry (in series [1]; in series [4]; on Cytochrome P450 2D6) was “Not Active” each time.
For the compound `Nc1nc2c(ncn2CCC(CO)CO)c(=O)[nH]1` [PENCICLOVIR], the half-maximal inhibitory concentration (IC50) entry (in series [1]; in series [2] (platelet); in series [3]; in series [4]; against Neutrophil elastase; on Adenosine receptor A3) was “Not Active” in each case. Besides, the concentration for half-maximal inhibition (IC50) result against Cytochrome P450 2D6 was “Not Active”. Further, the Ki entry (in series [1]; in series [4]; on Cytochrome P450 2D6) was “Not Active” in each case.
As to `O=c1oc2ccccc2c(O)c1Cc1c(O)c2ccccc2oc1=O` [DICUMAROL], the IC50 entry (in series [1]; in series [2] (platelet); in series [3]; in series [4]; at Neutrophil elastase; at Adenosine receptor A3) was “Not Active” each time. The IC50 result against Cytochrome P450 2D6 is “Not Active”. Further, the Ki result (in series [1]; in series [4]; at Cytochrome P450 2D6) was “Not Active” each time.

The values are drawn from ChEMBL document CHEMBL1909046, “DrugMatrix in vitro pharmacology data”.
